Blank lines part the entries; values can stand above or below the molecule they belong to.
Tests used:
[1] = molecular target: T1, cytosolic AtPGI (Arabidopsis thaliana, UniProt P34795); assay: coupled spectrophotometric assay; format: biochemical
T1 sequence (P34795 1-560): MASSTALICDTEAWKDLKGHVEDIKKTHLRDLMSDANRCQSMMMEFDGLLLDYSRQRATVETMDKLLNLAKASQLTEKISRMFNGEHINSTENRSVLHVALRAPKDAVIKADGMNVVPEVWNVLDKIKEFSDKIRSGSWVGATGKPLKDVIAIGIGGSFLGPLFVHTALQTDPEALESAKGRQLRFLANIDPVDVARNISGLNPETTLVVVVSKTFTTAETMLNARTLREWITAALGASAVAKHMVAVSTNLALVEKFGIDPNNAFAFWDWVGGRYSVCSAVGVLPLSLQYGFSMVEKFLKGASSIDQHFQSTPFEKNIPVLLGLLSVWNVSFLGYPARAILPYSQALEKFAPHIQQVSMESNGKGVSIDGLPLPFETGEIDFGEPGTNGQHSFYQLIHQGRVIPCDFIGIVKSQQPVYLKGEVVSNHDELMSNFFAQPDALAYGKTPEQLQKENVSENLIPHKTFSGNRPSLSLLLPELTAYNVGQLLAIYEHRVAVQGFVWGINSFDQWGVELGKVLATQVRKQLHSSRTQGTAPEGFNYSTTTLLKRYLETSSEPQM

[2] = molecular target: T2, plastidic AtPGI (Arabidopsis thaliana, UniProt Q8H103); assay: coupled spectrophotometric assay; format: biochemical
T2 sequence (Q8H103 49-613): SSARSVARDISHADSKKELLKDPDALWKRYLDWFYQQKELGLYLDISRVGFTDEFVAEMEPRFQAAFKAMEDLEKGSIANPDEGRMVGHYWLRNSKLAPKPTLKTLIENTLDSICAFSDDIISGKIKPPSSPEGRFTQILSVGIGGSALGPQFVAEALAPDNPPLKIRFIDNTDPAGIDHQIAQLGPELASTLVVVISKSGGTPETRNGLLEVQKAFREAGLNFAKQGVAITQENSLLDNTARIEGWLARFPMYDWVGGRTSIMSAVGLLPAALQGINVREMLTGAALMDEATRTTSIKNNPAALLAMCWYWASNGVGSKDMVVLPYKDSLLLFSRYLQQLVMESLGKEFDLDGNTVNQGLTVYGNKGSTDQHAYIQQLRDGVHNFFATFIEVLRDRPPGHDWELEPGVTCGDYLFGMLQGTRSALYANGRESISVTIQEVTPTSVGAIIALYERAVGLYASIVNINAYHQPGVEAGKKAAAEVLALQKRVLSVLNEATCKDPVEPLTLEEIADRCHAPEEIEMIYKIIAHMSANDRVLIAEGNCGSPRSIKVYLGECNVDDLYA

[3] = molecular target: T1, cytosolic AtPGI; assay: biochemical
[4] = molecular target: T3, AtG6PDH2 (Arabidopsis thaliana, UniProt Q9FY99); assay: spectrophotometric NADPH formation assay; format: biochemical
T3 sequence (Q9FY99 1-596 limits assumed): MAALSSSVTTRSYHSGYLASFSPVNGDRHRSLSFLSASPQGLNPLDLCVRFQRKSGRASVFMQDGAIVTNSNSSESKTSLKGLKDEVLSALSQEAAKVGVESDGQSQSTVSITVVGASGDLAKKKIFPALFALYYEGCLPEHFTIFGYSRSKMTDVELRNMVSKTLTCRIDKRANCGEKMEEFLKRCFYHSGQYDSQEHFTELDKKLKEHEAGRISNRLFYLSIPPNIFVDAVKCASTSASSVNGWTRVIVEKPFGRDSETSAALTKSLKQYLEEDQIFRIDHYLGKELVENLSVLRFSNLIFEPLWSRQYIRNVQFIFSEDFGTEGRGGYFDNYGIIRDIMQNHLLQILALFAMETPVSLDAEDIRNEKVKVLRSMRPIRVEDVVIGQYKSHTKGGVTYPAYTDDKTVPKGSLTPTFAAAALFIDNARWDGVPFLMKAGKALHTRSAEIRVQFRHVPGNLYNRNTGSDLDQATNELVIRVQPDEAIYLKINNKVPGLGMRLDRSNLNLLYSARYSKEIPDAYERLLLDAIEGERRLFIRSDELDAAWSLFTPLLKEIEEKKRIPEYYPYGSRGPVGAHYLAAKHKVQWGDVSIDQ

[5] = molecular target: T4, AtG6PDH3 (Arabidopsis thaliana, UniProt Q8L743); assay: spectrophotometric NADPH formation assay; format: biochemical
T4 sequence (Q8L743 1-599 limits assumed): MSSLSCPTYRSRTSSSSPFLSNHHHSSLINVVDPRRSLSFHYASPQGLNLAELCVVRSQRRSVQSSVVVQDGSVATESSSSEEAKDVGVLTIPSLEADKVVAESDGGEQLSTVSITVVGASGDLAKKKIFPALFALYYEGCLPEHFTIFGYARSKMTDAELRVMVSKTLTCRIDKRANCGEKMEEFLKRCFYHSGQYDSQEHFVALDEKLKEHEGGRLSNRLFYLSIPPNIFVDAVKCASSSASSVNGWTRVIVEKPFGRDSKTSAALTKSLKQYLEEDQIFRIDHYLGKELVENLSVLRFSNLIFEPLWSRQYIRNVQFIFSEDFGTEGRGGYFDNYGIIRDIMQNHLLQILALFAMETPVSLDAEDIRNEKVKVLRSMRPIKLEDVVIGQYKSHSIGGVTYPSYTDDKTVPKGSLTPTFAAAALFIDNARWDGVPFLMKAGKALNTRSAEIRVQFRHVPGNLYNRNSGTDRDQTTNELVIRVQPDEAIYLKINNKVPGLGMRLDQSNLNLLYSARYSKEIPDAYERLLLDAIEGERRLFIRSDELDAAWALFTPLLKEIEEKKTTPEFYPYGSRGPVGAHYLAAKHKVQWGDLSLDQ

[6] = molecular target: T5, AtG6PDH1 (Arabidopsis thaliana, UniProt Q43727); assay: spectrophotometric NADPH formation assay; format: biochemical
T5 sequence (Q43727 1-576 limits assumed): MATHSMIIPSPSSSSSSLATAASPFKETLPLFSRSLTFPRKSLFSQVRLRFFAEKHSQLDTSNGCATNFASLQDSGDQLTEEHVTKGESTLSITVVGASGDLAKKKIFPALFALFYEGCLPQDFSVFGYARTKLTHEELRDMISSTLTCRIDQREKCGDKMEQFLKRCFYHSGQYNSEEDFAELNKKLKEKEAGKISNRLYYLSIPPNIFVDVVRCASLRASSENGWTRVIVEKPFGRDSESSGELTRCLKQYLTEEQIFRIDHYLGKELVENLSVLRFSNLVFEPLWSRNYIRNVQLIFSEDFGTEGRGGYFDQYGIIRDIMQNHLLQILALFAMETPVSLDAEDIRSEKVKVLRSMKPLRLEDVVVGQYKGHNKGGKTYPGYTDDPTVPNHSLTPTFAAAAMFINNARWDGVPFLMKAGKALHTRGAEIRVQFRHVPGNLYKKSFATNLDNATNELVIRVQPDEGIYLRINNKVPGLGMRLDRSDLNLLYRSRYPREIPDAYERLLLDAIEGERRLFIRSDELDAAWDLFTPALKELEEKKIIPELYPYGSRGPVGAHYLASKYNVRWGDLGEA

[7] = molecular target: T2, plastidic AtPGI; assay: biochemical
[8] = molecular target: T4, AtG6PDH3; assay: spectrophotometric NADPH formation assay; format: biochemical; details: substrate inhibition; 0.6 mM NADP+; 150 mM Hepes pH 7.2
[9] = molecular target: T3, AtG6PDH2; assay: spectrophotometric NADPH formation assay; format: biochemical; details: substrate inhibition; 0.6 mM NADP+; 150 mM Hepes pH 7.2
[10] = molecular target: T5, AtG6PDH1; assay: spectrophotometric NADPH formation assay; format: biochemical; details: substrate inhibition; 0.6 mM NADP+; 150 mM Hepes pH 7.2
[11] = substrate: NC(=O)c1ccc[n+]([C@@H]2O[C@H](COP(=O)(O)OP(=O)(O)OC[C@H]3O[C@@H](n4cnc5c(N)ncnc54)[C@H](OP(=O)(O)O)[C@@H]3O)[C@@H](O)[C@H]2O)c1; assay: purified protein; details: 150 mM Hepes pH 7.2, varied: cofactor

B1: AtG6PDH1 (Arabidopsis thaliana) (protein)
chain: MATHSMIIPSPSSSSSSLATAASPFKETLPLFSRSLTFPRKSLFSQVRLRFFAEKHSQLDTSNGCATNFASLQDSGDQLTEEHVTKGESTLSITVVGASGDLAKKKIFPALFALFYEGCLPQDFSVFGYARTKLTHEELRDMISSTLTCRIDQREKCGDKMEQFLKRCFYHSGQYNSEEDFAELNKKLKEKEAGKISNRLYYLSIPPNIFVDVVRCASLRASSENGWTRVIVEKPFGRDSESSGELTRCLKQYLTEEQIFRIDHYLGKELVENLSVLRFSNLVFEPLWSRNYIRNVQLIFSEDFGTEGRGGYFDQYGIIRDIMQNHLLQILALFAMETPVSLDAEDIRSEKVKVLRSMKPLRLEDVVVGQYKGHNKGGKTYPGYTDDPTVPNHSLTPTFAAAAMFINNARWDGVPFLMKAGKALHTRGAEIRVQFRHVPGNLYKKSFATNLDNATNELVIRVQPDEGIYLRINNKVPGLGMRLDRSDLNLLYRSRYPREIPDAYERLLLDAIEGERRLFIRSDELDAAWDLFTPALKELEEKKIIPELYPYGSRGPVGAHYLASKYNVRWGDLGEA
Km ([11]; 7.6 mM G6P): 0.7 µM
kcat ([11]; 7.6 mM G6P): 57.0 s⁻¹

B2: AtG6PDH3 (Arabidopsis thaliana) (protein)
chain: MSSLSCPTYRSRTSSSSPFLSNHHHSSLINVVDPRRSLSFHYASPQGLNLAELCVVRSQRRSVQSSVVVQDGSVATESSSSEEAKDVGVLTIPSLEADKVVAESDGGEQLSTVSITVVGASGDLAKKKIFPALFALYYEGCLPEHFTIFGYARSKMTDAELRVMVSKTLTCRIDKRANCGEKMEEFLKRCFYHSGQYDSQEHFVALDEKLKEHEGGRLSNRLFYLSIPPNIFVDAVKCASSSASSVNGWTRVIVEKPFGRDSKTSAALTKSLKQYLEEDQIFRIDHYLGKELVENLSVLRFSNLIFEPLWSRQYIRNVQFIFSEDFGTEGRGGYFDNYGIIRDIMQNHLLQILALFAMETPVSLDAEDIRNEKVKVLRSMRPIKLEDVVIGQYKSHSIGGVTYPSYTDDKTVPKGSLTPTFAAAALFIDNARWDGVPFLMKAGKALNTRSAEIRVQFRHVPGNLYNRNSGTDRDQTTNELVIRVQPDEAIYLKINNKVPGLGMRLDQSNLNLLYSARYSKEIPDAYERLLLDAIEGERRLFIRSDELDAAWALFTPLLKEIEEKKTTPEFYPYGSRGPVGAHYLAAKHKVQWGDLSLDQ
Km ([11]; 7.6 mM G6P): 0.6 µM
kcat ([11]; 7.6 mM G6P): 14.6 s⁻¹

B3: AtG6PDH2 (Arabidopsis thaliana) (protein)
chain: MAALSSSVTTRSYHSGYLASFSPVNGDRHRSLSFLSASPQGLNPLDLCVRFQRKSGRASVFMQDGAIVTNSNSSESKTSLKGLKDEVLSALSQEAAKVGVESDGQSQSTVSITVVGASGDLAKKKIFPALFALYYEGCLPEHFTIFGYSRSKMTDVELRNMVSKTLTCRIDKRANCGEKMEEFLKRCFYHSGQYDSQEHFTELDKKLKEHEAGRISNRLFYLSIPPNIFVDAVKCASTSASSVNGWTRVIVEKPFGRDSETSAALTKSLKQYLEEDQIFRIDHYLGKELVENLSVLRFSNLIFEPLWSRQYIRNVQFIFSEDFGTEGRGGYFDNYGIIRDIMQNHLLQILALFAMETPVSLDAEDIRNEKVKVLRSMRPIRVEDVVIGQYKSHTKGGVTYPAYTDDKTVPKGSLTPTFAAAALFIDNARWDGVPFLMKAGKALHTRSAEIRVQFRHVPGNLYNRNTGSDLDQATNELVIRVQPDEAIYLKINNKVPGLGMRLDRSNLNLLYSARYSKEIPDAYERLLLDAIEGERRLFIRSDELDAAWSLFTPLLKEIEEKKRIPEYYPYGSRGPVGAHYLAAKHKVQWGDVSIDQ
Km ([11]; 15.4 mM G6P): 1.3 µM
kcat ([11]; 15.4 mM G6P): 39.4 s⁻¹

Now from value to molecule:

Ki [1]: 106 µM
Ki [2]: 31 µM
Ki [3]: 44 µM
Molecule: O=C(O)[C@H](O)[C@@H](O)[C@H](O)[C@H](O)COP(=O)(O)O [6-phosphogluconic acid]

Ki [4]: 0.9 µM
Ki [5]: 112 µM
Ki [6]: 59 µM
Molecule: NC(=O)C1=CN([C@@H]2O[C@H](COP(=O)(O)OP(=O)(O)OC[C@H]3O[C@@H](n4cnc5c(N)ncnc54)[C@H](OP(=O)(O)O)[C@@H]3O)[C@@H](O)[C@H]2O)C=CC1 [NADPH]

Ki [7]: 6 µM
Ki [1]: 1.5 µM
Ki [2]: 2.3 µM
Ki [3]: 3.7 µM
Molecule: O=C[C@H](O)[C@H](O)COP(=O)(O)O [erythrose 4-phosphate]

G6P Ki [8]: 37000 µM
G6P Ki [9]: 30000 µM
G6P Ki [10]: 18900 µM
Molecule: O=P(O)(O)OC[C@H]1OC(O)[C@H](O)[C@@H](O)[C@@H]1O (stereo partly shown) [glucose 6-phosphate]
